Data taken from publication PMC3226492, “Isomer Profiles of Perfluorochemicals in Matched Maternal, Cord, and House Dust Samples: Manufacturing Sources and Transplacental Transfer” (Environmental Health Perspectives, 2011).
Where two headings read alike, the source gives them in different places.

What was measured:
[1] = Transplacental transfer efficiency (TTE): cord serum at delivery divided by maternal serum concentration, present study; format: in vivo, human; conditions: for TTE calculated from cord:maternal serum concentrations, arithmetic mean / TTE calculated from cord:maternal serum concentrations, maximum / TTE calculated from cord:maternal serum concentrations, median / TTE calculated from cord:maternal serum concentrations, minimum: cord serum at delivery / maternal serum at 15 weeks of gestation; for Mean cord:maternal serum concentration: Present study
[2] = Total PFC concentrations in maternal and cord sera by HPLC-MS/MS; format: in vivo, human; conditions: for mean concentration in cord serum: cord serum at delivery
Experimental: Blood collection. Samples (n = 20) analyzed in this study are a subset of the Chemicals, Health and Pregnancy (CHirP) cohort recruited in 2007–2008 in Vancouver (BC, Canada) ([Webster et al. 2011]). All participants provided informed consent. Laboratory personnel collected blood samples from pregnant volunteers in Vancouver at 15 weeks of gestation, and samples of cord blood (n = 20) were collected at delivery. After serum separation, all samples were stored at –80°C. Ethical clearance was obtained from the research ethics boards of the University of British Columbia, the University of Alberta, Health Canada, and the three participating hospitals.
Serum preparation. The method of [Kuklenyik et al. (2004)] was adapted for the extraction of PFCs from serum using a Rapid Trace system (Caliper Life Sciences, Hopkinton, MA, USA). The solid-phase extraction cartridge (Oasis-HLB, Waters, Milford, MA, USA; 60 mg/3 mL) was conditioned with 2 mL methanol followed by 2 mL of 0.1 M formic acid. Serum was prepared for extraction by mixing 3 mL of 0.1 M formic acid with 1.0 mL serum. After the addition of mass-labeled internal standards (10 ng each), the mixture was vortexed and sonicated for 20 min. Prepared serum was added to the column and washed successively with 3 mL of 0.1 M formic acid, 6 mL of 50% 0.1 M formic acid/50% methanol, and 1 mL of 1% ammonium hydroxide. The cartridge was drained by vacuum, and PFCs were eluted with 1.0 mL of 1% ammonium hydroxide in acetonitrile. The eluate was concentrated to 100 μL followed by the addition of 200 μL of 90% 20 mM acetic acid in 10% methanol. Method blanks containing calf serum, a calf serum sample spiked at 0.5 ng/mL of each PFC, and a human serum sample spiked at 10 ng/mL were analyzed with the study samples.
Total PFC analysis. For total PFC concentrations, separation was by HPLC on a 150-mm Synergi Hydro-RP C-18 column (Phenomenex, Torrance, CA, USA). Gradient elution at 600 μL/min used A [20 mM ammonium acetate (pH 4) in water] and B (methanol) mobile phases. Initial conditions were 60% A for 1 min, ramped to 20% A by 3 min, a 5-min hold, an increase to 100% B by 8.5 min, and a hold until 14 min, at which time initial conditions were reestablished. MS/MS data were collected on an Applied Biosystems API 3000 mass spectrometer (Applied Biosystems, Carlsbad, CA, USA) using electrospray ionization in negative-ion mode [for mean recoveries of total PFCs in serum and dust, see Supplemental Material, Table 1 (http://dx.doi.org/10.1289/ehp.1003265)].

[3] = cited from earlier work
[4] = maternal serum, 15 weeks of gestation

Compound | TTE calculated from cord:maternal serum concentrations, arithmetic mean [1] | TTE calculated from cord:maternal serum concentrations, maximum [1] | TTE calculated from cord:maternal serum concentrations, median [1] | TTE calculated from cord:maternal serum concentrations, minimum [1] | further results
O=C(O)C(F)(F)C(F)(F)C(F)(F)C(F)(F)C(F)(F)C(F)(F)C(F)(F)F [n-PFOA] | 0.62 | 1.00 | 0.61 | 0.26 | –
O=S(=O)(O)C(F)(F)C(F)(F)C(F)(C(F)(F)F)C(F)(F)C(F)(F)C(F)(F)C(F)(F)F (stereo not drawn) [3m-PFOS] | 0.67 | 1.12 | 0.68 | 0.21 | –
O=S(=O)(O)C(F)(F)C(F)(F)C(F)(F)C(F)(F)C(F)(F)C(F)(C(F)(F)F)C(F)(F)F [Iso- PFOS] | 0.36 | 0.60 | 0.34 | 0.09 | –
O=C(O)C(F)(F)C(F)(F)C(F)(F)C(F)(C(F)(F)F)C(F)(F)C(F)(F)F (stereo not drawn) [5m-PFOA] | 0.86 | 2.26 | 0.54 | 0.09 | TTE calculated from cord:maternal serum concentrations, maximum ([1]; listed as 5m-PFOA): > 1.0
O=C(O)C(F)(F)C(F)(F)C(F)(F)C(F)(F)C(F)(F)C(F)(F)C(F)(F)C(F)(F)F [Total PFNA, perfluorononanoate] | 0.41 | 0.78 | 0.38 | 0.13 | mean concentration in cord serum [2]: 0.4 ng/mL; mean concentration in maternal serum [2, 4]: 0.9 ng/mL
O=S(=O)(O)C(F)(C(F)(F)F)C(F)(F)C(F)(F)C(F)(F)C(F)(F)C(F)(F)C(F)(F)F (stereo not drawn) [1m-PFOS] | 0.87 | 1.24 | 0.88 | 0.36 | –
O=C(O)C(F)(F)C(F)(F)C(F)(F)C(F)(F)C(F)(C(F)(F)F)C(F)(F)F [Iso-PFOA] | 0.84 | 2.56 | 0.67 | 0.16 | –
O=C(O)C(F)(F)C(F)(F)C(F)(F)C(C(F)(F)F)(C(F)(F)F)C(F)(F)F [tb-PFOA] | 0.25 | 0.48 | 0.25 | 0.02 | –
O=S(=O)(O)C(F)(F)C(F)(F)C(F)(F)C(F)(F)C(F)(F)C(F)(F)C(F)(F)C(F)(F)F [Total PFOS, perfluorooctane sulfonate] | 0.33 | 0.53 | 0.31 | 0.20 | Mean cord:maternal serum concentration ([1]; Canada, 2007, n 20, maternal serum sampled in the second trimester): 0.33; Mean cord:maternal serum concentration ([1]; TTE adjusted from 15 weeks to time of delivery (~ 40 weeks) using data from Monroy et al. (2008)): 0.36; mean concentration in cord serum [2]: 1.8 ng/mL; mean concentration in maternal serum [2, 4]: 5.5 ng/mL; Mean cord:maternal serum concentration ([3]; Canada, 2004–2005, n 101, ref Monroy et al. 2008): 0.45; Mean cord:maternal serum concentration ([3]; Denmark, 1996–2002, n 50, maternal serum sampled in the first trimester, ref Fei et al. 2007): 0.29; Mean cord:maternal serum concentration ([3]; Denmark, 1996–2002, n 50, maternal serum sampled in the second trimester, ref Fei et al. 2007): 0.34; Mean cord:maternal serum concentration ([3]; Faroe Islands, 2000, n 12, ref Needham et al. 2011): 0.34; Mean cord:maternal serum concentration ([3]; Germany, 2003, n 11, ref Midasch et al. 2007): 0.60; Mean cord:maternal serum concentration ([3]; Germany, 2007–2009, n 27, ref Fromme et al. 2010): 0.30; Mean cord:maternal serum concentration ([3]; Japan, 2003, n 15, ref Inoue et al. 2004): 0.32; Mean cord:maternal serum concentration ([3]; Korea, 2007, n 20, ref Kim et al. 2011): 0.36; Mean cord:maternal serum concentration ([3]; South Africa, 2005–2006, n 58, ref Hanssen et al. 2010): 0.45
O=C(O)C(F)(F)C(F)(F)C(F)(F)C(F)(F)C(F)(F)C(F)(F)C(F)(F)C(F)(F)C(F)(F)F [Total PFDA, perfluorodecanoate] | 0.34 | 1.10 | 0.23 | 0.00 | mean concentration in cord serum [2]: 0.1 ng/mL; mean concentration in maternal serum [2, 4]: 0.4 ng/mL
O=C(O)C(F)(F)C(F)(C(F)(F)F)C(F)(F)C(F)(F)C(F)(F)C(F)(F)F (stereo not drawn) [3m-PFOA] | 0.76 | – | 0.68 | 0.07 | –
O=S(=O)(O)C(F)(F)C(F)(F)C(F)(F)C(F)(F)C(F)(C(F)(F)F)C(F)(F)C(F)(F)F (stereo not drawn) [5m-PFOS] | 0.53 | 0.93 | 0.52 | 0.25 | –
O=C(O)C(F)(F)C(F)(F)C(F)(C(F)(F)F)C(F)(F)C(F)(F)C(F)(F)F (stereo not drawn) [4m-PFOA] | 0.64 | 1.29 | 0.68 | 0.09 | TTE calculated from cord:maternal serum concentrations, maximum ([1]; listed as 4m-PFOA): > 1.0
O=S(=O)(O)C(F)(F)C(F)(F)C(F)(F)C(F)(F)C(F)(F)C(F)(F)F [Total PFHxS, perfluorohexane sulfonate] | 0.41 | 0.56 | 0.38 | 0.29 | mean concentration in cord serum [2]: 0.7 ng/mL; concentration at 15 weeks of gestation ([2]; female, human, maternal serum, 15 weeks of gestation): 1.7 ng/mL
O=S(=O)(O)C(F)(F)C(F)(F)C(F)(F)C(F)(C(F)(F)F)C(F)(F)C(F)(F)C(F)(F)F (stereo not drawn) [4m-PFOS] | 0.55 | 0.85 | 0.52 | 0.20 | –
O=S(=O)(O)C(F)(F)C(F)(F)C(F)(F)C(F)(F)C(F)(F)C(F)(F)C(F)(F)C(F)(F)F [n-PFOS, linear perfluorooctane sulfonate] | 0.33 | 0.58 | 0.30 | 0.10 | –
